# Data: PubChem BioAssay AID504763 (Sanford-Burnham Center for Chemical Genomics, 2011)
# pIC50: −log10 of the molar value. Calls of active or inactive are those of the source. How the calls were made is not given here.
# Biological target: Hexokinase-1 (Homo sapiens) (UniProt P19367)
# Experiment: hexokinase 1 inhibition, dose response, selectivity assay for HKDC1 inhibitor project, biochemical (AID 504763)
# Details: HK1 enzyme selectivity assay
# Chain of Hexokinase-1 (Homo sapiens) (P19367 whole entry, looked up): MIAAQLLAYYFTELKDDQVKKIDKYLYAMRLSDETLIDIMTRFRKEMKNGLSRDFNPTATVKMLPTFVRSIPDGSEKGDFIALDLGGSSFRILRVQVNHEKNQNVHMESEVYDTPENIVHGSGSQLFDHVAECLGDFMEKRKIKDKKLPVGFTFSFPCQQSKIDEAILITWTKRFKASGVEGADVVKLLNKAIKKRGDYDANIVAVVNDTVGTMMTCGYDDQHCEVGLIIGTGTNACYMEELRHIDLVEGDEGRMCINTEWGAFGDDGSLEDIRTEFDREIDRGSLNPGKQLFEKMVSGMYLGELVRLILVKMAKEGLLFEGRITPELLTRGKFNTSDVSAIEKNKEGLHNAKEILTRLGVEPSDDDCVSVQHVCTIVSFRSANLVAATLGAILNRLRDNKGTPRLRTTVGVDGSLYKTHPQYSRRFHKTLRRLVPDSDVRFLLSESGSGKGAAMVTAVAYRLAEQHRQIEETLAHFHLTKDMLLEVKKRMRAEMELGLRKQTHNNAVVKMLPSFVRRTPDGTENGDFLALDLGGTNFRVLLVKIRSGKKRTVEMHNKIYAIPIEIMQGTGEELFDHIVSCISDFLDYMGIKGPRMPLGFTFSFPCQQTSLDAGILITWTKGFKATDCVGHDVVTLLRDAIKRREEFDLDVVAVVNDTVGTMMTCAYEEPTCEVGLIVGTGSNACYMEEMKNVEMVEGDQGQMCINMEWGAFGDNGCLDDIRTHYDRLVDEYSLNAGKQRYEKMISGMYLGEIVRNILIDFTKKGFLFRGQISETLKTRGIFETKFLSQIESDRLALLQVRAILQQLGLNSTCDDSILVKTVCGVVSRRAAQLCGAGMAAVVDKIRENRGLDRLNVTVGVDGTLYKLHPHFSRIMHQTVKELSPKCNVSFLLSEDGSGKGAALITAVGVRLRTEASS
Compound,IC50,pIC50
Oc1ccc(/C=N/Nc2ncc(Br)cn2)c(O)c1,> 80 µM (inactive),
N#C/C(=C(/O)CCl)c1nc2c(s1)CCc1ccccc1-2,inactive,
COC1(NS(=O)(=O)c2ccc(Br)cc2)C(C)=CC(=O)C=C1C,> 80 µM (inactive),
Cc1cccc2c(N=NC(=O)c3ccc(NS(=O)(=O)c4cccs4)cc3)c(O)[nH]c12,inactive,
COc1cc(/C=C(\C#N)c2nc3ccc(C)cc3[nH]2)cc([N+](=O)[O-])c1O,,4.74
Cc1ccc(N=Cc2cc(Cc3ccccc3Cl)cc([N+](=O)[O-])c2O)c(O)c1,> 80 µM (inactive),
CC(NC1=CC(=O)c2cccnc2C1=O)C(O)c1ccccc1 (stereo not given),inactive,
COCc1cc(C2C(C(=O)c3ccco3)=C(O)C(=O)N2CCOCCO)ccc1O (stereo not given),> 80 µM (inactive),
Cc1nc2c(O)c3c(c(O)c2nc1C)C1C=CC3CC1,,5.68
C=CCn1c(SCC(=O)Nc2sc3c(c2C#N)CCC(C)C3)nc2cc(C(=O)O)ccc2c1=O (stereo not given),> 80 µM (inactive),
O=C(CNC(=O)/C=C/c1ccco1)N=Nc1c(O)[nH]c2ccccc12,> 80 µM (inactive),
COc1ccc(CN2C(=O)c3cccnc3C2O)cc1 (stereo not given),> 80 µM (inactive),
COCC(=O)OC1CCn2c1nc1c2C(=O)C(C)=C(NC(C)=O)C1=O (stereo not given),,5.67
O=C(NCCc1ccccc1)c1cnn2c(C(F)F)cc(C3CC3)nc12,,5.26
O=C1C(Cl)=C(NCCc2ccccc2)C(=O)c2ccccc21,,4.73
Cc1cccc(C)c1Nc1nnc(SCc2cn3cccc(C)c3n2)s1,> 80 µM (inactive),
CC1COCC(C)N1C1=C(Cl)C(=O)c2ccccc2C1=O (stereo not given),> 80 µM (inactive),
O=[N+]([O-])c1ccc(NN=Cc2ccc(O)cc2O)nc1,> 80 µM (inactive),
CCCc1nc2c(c(=O)c3ccccc3n2C)c(=O)n1-c1ccc(F)cc1,,5.19
Cc1ccc(NC2c3ncccc3C(=O)N2c2ccccc2C)cc1C (stereo not given),> 80 µM (inactive),
